Test results taken from patent US20230406885A1, “CYCLIC PEPTIDES FOR TRAPPING INTERLEUKIN-1 BETA” (MERCK SHARP & DOHME LLC, priority 2022, published 2023).
pIC50: −log10 of the molar value. *1 amine or outer side, *2 acyl side, *3 side chain or, on linkers, in order; H or OH if unused. Where a SMILES comes first, the peptide text is derived from it. [ ]: non-standard residue; d: D form. Trp(βS-Me,4-F) = C[C@@H](c1c[nH]c2cccc(F)c12)[C@H](N)C(=O)O; Bip(4'-COOH) = N[C@@H](Cc1ccc(-c2ccc(C(=O)O)cc2)cc1)C(=O)O; X1 = CC(=O)N1CCN(c2ccc(C[C@H](N[*:1])C(=O)[*:2])cn2)CC1; 1Nal(3S-Me) = C[C@@H](c1cccc2ccccc12)[C@H](N)C(=O)O; Phe(4-COOH) = N[C@@H](Cc1ccc(C(=O)O)cc1)C(=O)O; h3Pal(5-CN) = N#Cc1cncc(CC[C@H](N)C(=O)O)c1; Pro(4R-NH2) = N[C@H]1CN[C@H](C(=O)O)C1; AEF = NCCOc1ccc(C[C@H](N)C(=O)O)cc1; hTyr = N[C@@H](CCc1ccc(O)cc1)C(=O)O; hCha = N[C@@H](CCC1CCCCC1)C(=O)O; tBuAla = CC(C)(C)C[C@H](N)C(=O)O; Aad = N[C@@H](CCCC(=O)O)C(=O)O; dNle = CCCC[C@@H](N)C(=O)O; dOrn = NCCC[C@@H](N)C(=O)O; dDab = NCC[C@@H](N)C(=O)O; dNva = CCC[C@@H](N)C(=O)O; dNMeA = CN[C@H](C)C(=O)O; Dab = NCC[C@H](N)C(=O)O; Dap = NC[C@H](N)C(=O)O

Target: T1, Recombinant human IL-1β (Homo sapiens, UniProt P01584)
T1 construct: purchased BioLegend 579404
T1 sequence (P01584 117-269): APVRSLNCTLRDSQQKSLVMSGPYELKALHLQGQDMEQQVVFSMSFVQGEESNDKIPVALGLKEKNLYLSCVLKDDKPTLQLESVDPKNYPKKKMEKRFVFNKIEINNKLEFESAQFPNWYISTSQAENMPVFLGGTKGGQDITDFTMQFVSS
Experiment: IL-6 assay in MRC5 cells: inhibition of IL-1β induced IL-6 secretion (AlphaLISA)
Format: cell-based
Settings: inhibition of IL-1β induced IL-6 secretion in MRC5 cells; read-out: MRC5 IC50
Procedure, shortened: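 IL-1β at 2×EC80 in seeding medium (EMEM, 0.025% BSA) preincubated 1 h at ambient temperature with compound, then 3000 MRC5 cells/well added and incubated overnight at 37 °C, 5% CO2. IL-6 in conditioned medium quantified by AlphaLISA; IC50 from 4-parameter logistic fit.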

Row | SMILES | pIC50
1 | CC(=O)NCCOc1ccc(C[C@@H]2NC(=O)[C@H](CCc3ccc(O)cc3)NC(=O)[C@@H](CCN)NC(=O)[C@H](CC(C)C)NC(=O)[C@H](Cc3c[nH]c4ccccc34)NC(=O)[C@H](Cc3ccc(-c4ccc(C(=O)O)cc4)cc3)NC(=O)CNC(=O)[C@@H](C)N(C)C(=O)[C@H](CC(=O)O)NC(=O)[C@H]([C@@H](C)c3c[nH]c4cccc(F)c34)NC(=O)[C@@H]3C[C@@H](N)CN3C(=O)CNC(=O)[C@H](Cc3ccc(C(=O)O)cc3)NC(=O)[C@H](Cc3c[nH]c4ccccc34)NC2=O)cc1 [Example 168] (cyclo([AEF](Ac)W[Phe(4-COOH)]G[Pro(4R-NH2)][Trp(βS-Me,4-F)]D[dNMeA]G[Bip(4'-COOH)]WL[dDab][hTyr])) | 10.07
2 | CC(=O)NCCOc1ccc(C[C@@H]2NC(=O)[C@H](CCc3ccc(O)cc3)NC(=O)[C@@H](CCCCN)NC(=O)[C@H](CC(C)C)NC(=O)[C@H](Cc3c[nH]c4ccccc34)NC(=O)[C@H](Cc3ccc(-c4ccc(C(=O)O)cc4)cc3)NC(=O)CNC(=O)[C@@H](C)N(C)C(=O)[C@H](CC(=O)O)NC(=O)[C@H]([C@@H](C)c3c[nH]c4cccc(F)c34)NC(=O)[C@@H]3C[C@@H](N)CN3C(=O)CNC(=O)[C@H](Cc3ccc(C(=O)O)cc3)NC(=O)[C@H](Cc3c[nH]c4ccccc34)NC2=O)cc1 [Example 169] (cyclo([AEF](Ac)W[Phe(4-COOH)]G[Pro(4R-NH2)][Trp(βS-Me,4-F)]D[dNMeA]G[Bip(4'-COOH)]WL[dK][hTyr])) | 9.95
3 | CC(=O)NCCOc1ccc(C[C@@H]2NC(=O)[C@H](CCc3ccc(O)cc3)NC(=O)[C@@H](CCCN)NC(=O)[C@H](CC(C)C)NC(=O)[C@H](Cc3c[nH]c4ccccc34)NC(=O)[C@H](Cc3ccc(-c4ccc(C(=O)O)cc4)cc3)NC(=O)CNC(=O)[C@@H](C)N(C)C(=O)[C@H](CC(=O)O)NC(=O)[C@H]([C@@H](C)c3c[nH]c4cccc(F)c34)NC(=O)[C@@H]3C[C@@H](N)CN3C(=O)CNC(=O)[C@H](Cc3ccc(C(=O)O)cc3)NC(=O)[C@H](Cc3c[nH]c4ccccc34)NC2=O)cc1 [Example 170] (cyclo([AEF](Ac)W[Phe(4-COOH)]G[Pro(4R-NH2)][Trp(βS-Me,4-F)]D[dNMeA]G[Bip(4'-COOH)]WL[dOrn][hTyr])) | 10.01
4 | CC(=O)NCCOc1ccc(C[C@@H]2NC(=O)[C@H](CCc3ccc(O)cc3)NC(=O)[C@@H](CO)NC(=O)[C@H](CC(C)C)NC(=O)[C@H](Cc3c[nH]c4ccccc34)NC(=O)[C@H](Cc3ccc(-c4ccc(C(=O)O)cc4)cc3)NC(=O)CNC(=O)[C@@H](C)N(C)C(=O)[C@H](CC(=O)O)NC(=O)[C@H]([C@@H](C)c3c[nH]c4cccc(F)c34)NC(=O)[C@@H]3C[C@@H](N)CN3C(=O)CNC(=O)[C@H](Cc3ccc(C(=O)O)cc3)NC(=O)[C@H](Cc3c[nH]c4ccccc34)NC2=O)cc1 [Example 171] (cyclo([AEF](Ac)W[Phe(4-COOH)]G[Pro(4R-NH2)][Trp(βS-Me,4-F)]D[dNMeA]G[Bip(4'-COOH)]WL[dS][hTyr])) | 9.84
5 | CC(=O)NCCOc1ccc(C[C@@H]2NC(=O)[C@H](CCc3ccc(O)cc3)NC(=O)[C@@H](C)NC(=O)[C@H](CO)NC(=O)[C@H](Cc3c[nH]c4ccccc34)NC(=O)[C@H](Cc3ccc(-c4ccc(C(=O)O)cc4)cc3)NC(=O)CNC(=O)[C@@H](C)N(C)C(=O)[C@H](CC(=O)O)NC(=O)[C@H]([C@@H](C)c3c[nH]c4cccc(F)c34)NC(=O)[C@@H]3C[C@@H](N)CN3C(=O)CNC(=O)[C@H](Cc3ccc(C(=O)O)cc3)NC(=O)[C@H](Cc3c[nH]c4ccccc34)NC2=O)cc1 [Example 172] (cyclo([AEF](Ac)W[Phe(4-COOH)]G[Pro(4R-NH2)][Trp(βS-Me,4-F)]D[dNMeA]G[Bip(4'-COOH)]WS[dA][hTyr])) | 9.61
6 | CC(=O)NCCOc1ccc(C[C@@H]2NC(=O)[C@H](Cc3ccc(OCCNC(C)=O)cc3)NC(=O)[C@@H](C)NC(=O)[C@H](CO)NC(=O)[C@H](Cc3c[nH]c4ccccc34)NC(=O)[C@H](Cc3ccc(-c4ccc(C(=O)O)cc4)cc3)NC(=O)CNC(=O)[C@@H](C)N(C)C(=O)[C@H](CC(=O)O)NC(=O)[C@H]([C@@H](C)c3c[nH]c4cccc(F)c34)NC(=O)[C@@H]3C[C@@H](N)CN3C(=O)CNC(=O)[C@H](Cc3ccc(C(=O)O)cc3)NC(=O)[C@H](Cc3c[nH]c4ccccc34)NC2=O)cc1 [Example 173] (cyclo([AEF](Ac)W[Phe(4-COOH)]G[Pro(4R-NH2)][Trp(βS-Me,4-F)]D[dNMeA]G[Bip(4'-COOH)]WS[dA][AEF](Ac))) | 9.02
7 | CC(=O)N1CCN(c2ccc(C[C@@H]3NC(=O)[C@H](CCC4CCCCC4)NC(=O)[C@@H](C)NC(=O)[C@H](CC(C)C)NC(=O)[C@H](CCN)NC(=O)[C@H](Cc4ccc(-c5ccc(C(=O)O)cc5)cc4)NC(=O)CNC(=O)[C@@H](C)N(C)C(=O)[C@H](CC(=O)O)NC(=O)[C@H]([C@@H](C)c4cccc5ccccc45)NC(=O)[C@@H]4C[C@@H](N)CN4C(=O)CNC(=O)[C@H](Cc4ccc(C(=O)O)cc4)NC(=O)[C@H](Cc4c[nH]c5ccccc45)NC3=O)cn2)CC1 [Example 174] (cyclo([X1]W[Phe(4-COOH)]G[Pro(4R-NH2)][1Nal(3S-Me)]D[dNMeA]G[Bip(4'-COOH)][Dab]L[dA][hCha])) | 10.82
8 | CC(=O)N1CCN(c2ccc(C[C@@H]3NC(=O)[C@H](CCC4CCCCC4)NC(=O)[C@@H](C)NC(=O)[C@H](CC(C)C)NC(=O)[C@H](CN)NC(=O)[C@H](Cc4ccc(-c5ccc(C(=O)O)cc5)cc4)NC(=O)CNC(=O)[C@@H](C)N(C)C(=O)[C@H](CC(=O)O)NC(=O)[C@H]([C@@H](C)c4cccc5ccccc45)NC(=O)[C@@H]4C[C@@H](N)CN4C(=O)CNC(=O)[C@H](Cc4ccc(C(=O)O)cc4)NC(=O)[C@H](Cc4c[nH]c5ccccc45)NC3=O)cn2)CC1 [Example 175] (cyclo([X1]W[Phe(4-COOH)]G[Pro(4R-NH2)][1Nal(3S-Me)]D[dNMeA]G[Bip(4'-COOH)][Dap]L[dA][hCha])) | 10.80
9 | CC(=O)N1CCN(c2ccc(C[C@@H]3NC(=O)[C@H](CCc4cncc(C#N)c4)NC(=O)[C@@H](C)NC(=O)[C@H](CC(C)C)NC(=O)[C@H](CCCC(N)=O)NC(=O)[C@H](Cc4ccc(-c5ccc(C(=O)O)cc5)cc4)NC(=O)CNC(=O)[C@@H](C)N(C)C(=O)[C@H](CC(=O)O)NC(=O)[C@H]([C@@H](C)c4cccc5ccccc45)NC(=O)[C@@H]4C[C@@H](N)CN4C(=O)CNC(=O)[C@H](Cc4ccc(C(=O)O)cc4)NC(=O)[C@H](Cc4c[nH]c5ccccc45)NC3=O)cn2)CC1 [Example 176] (cyclo([X1]W[Phe(4-COOH)]G[Pro(4R-NH2)][1Nal(3S-Me)]D[dNMeA]G[Bip(4'-COOH)][Aad](NH2)L[dA][h3Pal(5-CN)])) | 10.77
10 | CC(=O)N1CCN(c2ccc(C[C@@H]3NC(=O)[C@H](CCC4CCCCC4)NC(=O)[C@@H](C)NC(=O)[C@H](CC(C)C)NC(=O)[C@H](CCCCN)NC(=O)[C@H](Cc4ccc(-c5ccc(C(=O)O)cc5)cc4)NC(=O)CNC(=O)[C@@H](C)N(C)C(=O)[C@H](CC(=O)O)NC(=O)[C@H]([C@@H](C)c4cccc5ccccc45)NC(=O)[C@@H]4C[C@@H](N)CN4C(=O)CNC(=O)[C@H](Cc4ccc(C(=O)O)cc4)NC(=O)[C@H](Cc4c[nH]c5ccccc45)NC3=O)cn2)CC1 [Example 177] (cyclo([X1]W[Phe(4-COOH)]G[Pro(4R-NH2)][1Nal(3S-Me)]D[dNMeA]G[Bip(4'-COOH)]KL[dA][hCha])) | 10.89
11 | CC(=O)N1CCN(c2ccc(C[C@@H]3NC(=O)[C@H](CCc4cncc(C#N)c4)NC(=O)[C@@H](CC(C)C)NC(=O)[C@H](CC(C)C)NC(=O)[C@H](CCCCN)NC(=O)[C@H](Cc4ccc(-c5ccc(C(=O)O)cc5)cc4)NC(=O)CNC(=O)[C@@H](C)N(C)C(=O)[C@H](CC(=O)O)NC(=O)[C@H]([C@@H](C)c4cccc5ccccc45)NC(=O)[C@@H]4C[C@@H](N)CN4C(=O)CNC(=O)[C@H](Cc4ccc(C(=O)O)cc4)NC(=O)[C@H](Cc4c[nH]c5ccccc45)NC3=O)cn2)CC1 [Example 178] (cyclo([X1]W[Phe(4-COOH)]G[Pro(4R-NH2)][1Nal(3S-Me)]D[dNMeA]G[Bip(4'-COOH)]KL[dL][h3Pal(5-CN)])) | 10.72
12 | CCCC[C@H]1NC(=O)[C@H](CC(C)C)NC(=O)[C@H](CCCCN)NC(=O)[C@H](Cc2ccc(-c3ccc(C(=O)O)cc3)cc2)NC(=O)CNC(=O)[C@@H](C)N(C)C(=O)[C@H](CC(=O)O)NC(=O)[C@H]([C@@H](C)c2cccc3ccccc23)NC(=O)[C@@H]2C[C@@H](N)CN2C(=O)CNC(=O)[C@H](Cc2ccc(C(=O)O)cc2)NC(=O)[C@H](Cc2c[nH]c3ccccc23)NC(=O)[C@H](Cc2ccc(N3CCN(C(C)=O)CC3)nc2)NC(=O)[C@H](CCc2cncc(C#N)c2)NC1=O [Example 179] (cyclo([X1]W[Phe(4-COOH)]G[Pro(4R-NH2)][1Nal(3S-Me)]D[dNMeA]G[Bip(4'-COOH)]KL[dNle][h3Pal(5-CN)])) | 10.77
13 | CCC[C@H]1NC(=O)[C@H](CC(C)C)NC(=O)[C@H](CCCCN)NC(=O)[C@H](Cc2ccc(-c3ccc(C(=O)O)cc3)cc2)NC(=O)CNC(=O)[C@@H](C)N(C)C(=O)[C@H](CC(=O)O)NC(=O)[C@H]([C@@H](C)c2cccc3ccccc23)NC(=O)[C@@H]2C[C@@H](N)CN2C(=O)CNC(=O)[C@H](Cc2ccc(C(=O)O)cc2)NC(=O)[C@H](Cc2c[nH]c3ccccc23)NC(=O)[C@H](Cc2ccc(N3CCN(C(C)=O)CC3)nc2)NC(=O)[C@H](CCc2cncc(C#N)c2)NC1=O [Example 180] (cyclo([X1]W[Phe(4-COOH)]G[Pro(4R-NH2)][1Nal(3S-Me)]D[dNMeA]G[Bip(4'-COOH)]KL[dNva][h3Pal(5-CN)])) | 10.68
14 | CC(=O)N1CCN(c2ccc(C[C@@H]3NC(=O)[C@H](CCc4cncc(C#N)c4)NC(=O)[C@@H](C)NC(=O)[C@H](CC(C)(C)C)NC(=O)[C@H](CCCCN)NC(=O)[C@H](Cc4ccc(-c5ccc(C(=O)O)cc5)cc4)NC(=O)CNC(=O)[C@@H](C)N(C)C(=O)[C@H](CC(=O)O)NC(=O)[C@H]([C@@H](C)c4cccc5ccccc45)NC(=O)[C@@H]4C[C@@H](N)CN4C(=O)CNC(=O)[C@H](Cc4ccc(C(=O)O)cc4)NC(=O)[C@H](Cc4c[nH]c5ccccc45)NC3=O)cn2)CC1 [Example 181] (cyclo([X1]W[Phe(4-COOH)]G[Pro(4R-NH2)][1Nal(3S-Me)]D[dNMeA]G[Bip(4'-COOH)]K[tBuAla][dA][h3Pal(5-CN)])) | 10.82
